Counter-ions that a name gives are not always drawn.

For one test, the system named is methacholine (MCh)-induced bronchoconstriction. Description: Rat Einthoven assay: bronchoprotection against methacholine (MCh)-induced bronchoconstriction. The class given is in vivo. As to conditions: 100 μg by inhalation, bronchoprotective effect present. The protocol:
This assay measures the ability of a test compound to provide bronchoprotection against methacholine (MCh)-induced bronchoconstriction in a rat. Male Sprague-Dawley rats (Harlan, Indianapolis, Ind.), weighing between 200 g and 350 g, were used for all studies. Test compound or vehicle (sterile deionized water) were dosed by inhalation (1H) over a 10 min period in a pie shaped inhalation chamber (R+S Molds, San Carlos, Calif.) using 5 mL of dosing solution. […] Rats were dosed with 100 μg of test compound unless otherwise indicated. At predetermined time points, rats were anesthetized with all intraperitoneal (IP) injection of 120 mg/kg inactin (thiobutabarbital). A supplemental dose (40 mg/kg, IP) was administered if the animal responded to physical stimuli (e.g. toe pinch). The surgical site was shaved and a 1-2 cm midline incision of the ventral aspect of the neck was made. The jugular vein was isolated and cannulated with a saline-filled polyethylene catheter (PE-50) to allow IV infusion of MCh. Trachea was dissected free and cannulated with a 14G needle (#NE-014, Small Parts, Miami Lakes, Fla.). After placement of the tracheal cannula, each rat was ventilated using a respirator (Model 683, Harvard Apparatus, Inc., Mass.) set at a stroke volume of 1 mL/100 g body weight (but not exceeding 2.5 mL volume) and a rate of 90 strokes per minute. A T-connector was placed along the respirator expiratory tubing to allow for measurement of changes in ventilation pressure (VP) using a Biopac transducer that was connected to a Biopac […]) pre-amplifier. Body temperature was maintained at 37° C. using a heating pad. Changes in VP were recorded using the Acknowledge Data Collection Software (Santa Barbara, Calif.). Baseline values were collected for at least 2.5 min. Rats were then challenged with non-cumulative intravenous (IV) infusions of 40 and 80 μg/kg MCh. MCh was infused intravenously for 2.5 minutes from a syringe pump (sp210iw, World Precision Instruments, Inc., Sarasota, Fla.) at a rate of 2 mL/kg/min, with a 2 minute interval between the two doses of MCh. Changes in ventilation pressure (cm H2O) in treated animals are expressed as % inhibition of MCh response relative to control animals. Other bronchoconstrictors, such as histamine and acetylcholine, can be used in place of MCh in this assay. Additonally, guinea pigs can be used instead of rats. […] Inhibition greater than or equal to 30 percent at 24 h is indicative of a long duration of action.
For `Cc1cc(CNC[C@H](O)c2ccc(O)c3[nH]c(=O)ccc23)ccc1NC(=O)CCCN(C)C(=O)CCN1CCC(OC(=O)Nc2ccccc2-c2ccccc2)CC1` [Compound I-2, Biphenyl-2-ylcarbamic acid 1-(2-{[3-(4-{[(R)-2-hydroxy-2-(8-hydroxy-2-oxo-1,2-dihydroquinolin-5-yl)ethylamino]methyl}-2-methylphenylcarbamoyl)propyl]methylcarbamoyl}ethyl)piperidin-4-yl ester ditrifluoroacetic acid salt], the “Broncho. at 24 h” value is “No”. Same read-out and setting: to `CN(C(=O)CCN1CCC(OC(=O)Nc2ccccc2-c2ccccc2)CC1)c1cccc(CC(=O)Nc2cccc(CCNC[C@H](O)c3ccc(O)c4[nH]c(=O)ccc34)c2)c1` [Compound I-62, ditrifluoroacetic acid salt] belongs “Yes (Bronchoprotective effect present at 24 h, e.g., ≧30% inhibition of the MCh response at 24 h in the rat Einthoven assay (100 μg))”; to `CN(CCCC(=O)Nc1cccc(CCNC[C@H](O)c2ccc(O)c3[nH]c(=O)ccc23)c1)C(=O)CCN1CCC(OC(=O)Nc2ccccc2-c2ccccc2)CC1` [Compound I-7, Biphenyl-2-ylcarbamic Acid 1-(2-{[3-(3{2-[(R)-2-Hydroxy-2-(8-hydroxy-2-oxy-1,2-dihydroquinolin-5-yl)ethylamino]ethyl}phenylcarbamoyl)-propyl]methylcarbamoyl}ethyl)piperidin-4-yl Ester Ditrifluoroacetic Acid Salt], “Yes (Bronchoprotective effect present at 24 h, e.g., ≧30% inhibition of the MCh response at 24 h in the rat Einthoven assay (100 μg))”.

Consider `CC(Cc1cccc(CC(=O)NCCCCN(C)C(=O)CCN2CCC(OC(=O)Nc3ccccc3-c3ccccc3)CC2)c1)NC[C@H](O)c1ccc(O)c2[nH]c(=O)ccc12` (stereo in doubt) [Compound I-23, Biphenyl-2-ylcarbamic acid 1-[2-({4-[2-(3-{(R)-2-[(R)-2-hydroxy-2-(8-hydroxy-2-oxo-1,2-dihydroquinolin-5-yl)ethylamino]propyl}phenyl)acetylamino]butyl}methylcarbamoyl)ethyl]piperidin-4-yl ester ditrifluoroacetic acid salt], for which the “Broncho. at 24 h” value is reported as “Yes (Bronchoprotective effect present at 24 h, e.g., ≧30% inhibition of the MCh response at 24 h in the rat Einthoven assay (100 μg))”. Turning to `C[C@H](Cc1cccc(CC(=O)NCCCN(C)C(=O)CCN2CCC(OC(=O)Nc3ccccc3-c3ccccc3)CC2)c1)NC[C@H](O)c1ccc(O)c2[nH]c(=O)ccc12` [Compound I-12, Biphenyl-2-ylcarbamic acid 1-[2-({3-[2-(3-{(R)-2-[(R)-2-hydroxy-2-(8-hydroxy-2-oxo-1,2-dihydroquinolin-5-yl)ethylamino]propyl}phenyl)acetylamino]propyl}methylcarbamoyl)ethyl]piperidin-4-yl ester ditrifluoroacetic acid salt], the “Broncho. at 24 h” value is “No”. For `C[C@@H](Cc1cccc(CC(=O)NCCCN(C)C(=O)CCN2CCC(OC(=O)Nc3ccccc3-c3ccccc3)CC2)c1)NC[C@H](O)c1ccc(O)c2[nH]c(=O)ccc12` [Compound I-13, Biphenyl-2-ylcarbamic Acid 1[2-({3-[2-(3-{(S)-2-[(R)-2-Hydroxy-2-(8-hydroxy-2-oxo-1,2-dihydroquinolin-5-yl)ethylamino]propyl}phenyl)acetylaminol]-propyl}methylcarbamoyl)ethyl]piperidin-4-yl Ester Ditrifluoroacetic Acid Salt], the “Broncho. at 24 h” value is reported as “Yes (Bronchoprotective effect present at 24 h, e.g., ≧30% inhibition of the MCh response at 24 h in the rat Einthoven assay (100 μg))”. The same measure, in the same setting: to `Cc1ccc(C(=O)Nc2ccc(CC(C)NC[C@H](O)c3ccc(O)c4[nH]c(=O)ccc34)cc2)cc1N(C)C(=O)CCN1CCC(OC(=O)Nc2ccccc2-c2ccccc2)CC1` (stereo partly drawn) [Compound I-41, Biphenyl-2-ylcarbamic acid 1-(2-{[5-(4-{2-[(R)-2-hydroxy-2-(8-hydroxy-2-oxo-1,2-dihydroquinolin-5-yl)-ethylamino]propyl}phenylcarbamoyl)-2-methylphenyl]-methylcarbamoyl}ethyl)piperidin-4-yl ester] belongs “No”.

The test is the same for the next values; noted with them: inhaled or nasal, 100 μg by inhalation, 24 h, bronchoprotective effect present, read-out: Broncho. at 24 h.
On to `CN(C(=O)CCN1CCC(OC(=O)Nc2ccccc2-c2ccccc2)CC1)c1cccc(C(=O)Nc2ccc(CNC[C@H](O)c3ccc(O)c4[nH]c(=O)ccc34)cc2)c1` [Compound I-25], for which the inhibition in vivo at 0.1 mg is over 30%.

Source of the values: patent US9572802B2 (Theravance Respiratory Company, LLC, priority 2009, dated 2017).
